In paper PMC5515971, “Utility of spherical human liver microtissues for prediction of clinical drug-induced liver injury” (Archives of Toxicology, 2017):
Where two headings read alike, the source gives them in different places.

What was measured:
[1] = tested on: 3D human liver microtissues (hLiMT); assay: Cytotoxicity (cellular ATP) in 3D human liver microtissues, 5-6 days treatment; format: cell-based; conditions: Homo sapiens; hLiMT, 5/6 days, ATP content; read-out: IC50 SHORT;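 also: Hanging-drop spheroids, seven-point dilution series, re-dosed on day 3, CellTiter-Glo 2.0 luminescence, normalized to 0.5 or 1% DMSO vehicle controls on the same plate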
[2] = tested on: 3D human liver microtissues (hLiMT); assay: Cytotoxicity (cellular ATP, CellTiter-Glo 2.0) in 3D human liver microtissues, 14 day repeat-dose treatment
[3] = cited from earlier work
[4] = tested on: primary human hepatocytes (PHH); assay: Cytotoxicity (cellular ATP, CellTiter-Glo) in 2D plated primary human hepatocytes, 48 h treatment; format: cell-based; conditions: for IC50: 2D primary human hepatocytes (lot IZT), 48 h treatment, total cellular ATP content, read-out: Geomean IC50;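 as to all read-outs here: 384-well plates, luminescence read-out, normalized to vehicle wells with 1% DMSO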
Description: Cryopreserved PHH (lot IZT) were thawed in InVitroGro HT™ thawing media at 37 °C, pelleted, and resuspended. Viable hepatocytes were counted by Trypan blue exclusion and plated in black-walled, BioCoat™ collagen 384-well plates at 13,000 cells/well in InVitroGro CP™ plating media supplemented with 1% Torpedo™ Antibiotic Mix and 5% fetal bovine serum and incubated overnight for 18 h. Cells were then treated with compounds for 48 h diluted in InVitroGro HI™ incubation media containing 1% Torpedo Antibiotic Mix, 10% fetal bovine serum, and 1% DMSO. […] Luminescence was determined on an EnVision™ Muliplate Reader (PerkinElmer, Waltham, MA, USA), and data were normalized to vehicle (1% DMSO) control wells.

[5] = ref Chen et al 2016 / Chen et al 2011; cited from earlier work
[6] = cited from earlier work; for DILI category: clinical, from literature and product labels
[7] = Homo sapiens, Hepatocyte, 336 h, read-out: Geomean IC50 [µM]
[8] = human Cmax total, used for IC50/Cmax
[9] = human total plasma Cmax, ref literature values
[10] = Table 1, ref Garside et al. (2014)
[11] = clinical DILI severity category, 1-5

Compound: CC(C)c1c(C(=O)Nc2ccccc2)c(-c2ccccc2)c(-c2ccc(F)cc2)n1CC[C@@H](O)C[C@@H](O)CC(=O)O [Atorvastatin]
- IC50 [1]: 70.7 µM
- IC50 [2, 7]: 6 µM

Compound: Cn1cnc([N+](=O)[O-])c1Sc1ncnc2nc[nH]c12 [Azathioprine]
- Cmax [3, 8]: 7.2 µM
- Cmax [3, 9]: 7.21 µM
- IC50 [2, 7]: 22.2 µM
- IC50 ([4]; Hepatocyte): > 100 µM
- FDA DILI Classification DILI severity score [5]: 5
- LTKB DILI classification [5]: most DILI concern
- DILI severity category [6, 10]: 2: High clinical DILI concern (N = 23)
- DILI severity category [6, 11]: 2. High Clinical DILI Concern
- DILI category ([6]; ref Garside et al. 2014): 2. High Clinical DILI Concern

Compound: CC(C(=O)O)c1ccc2oc(-c3ccc(Cl)cc3)nc2c1 (stereo not shown) [Benoxaprofen]
- Cmax [3, 8]: 149 µM
- Cmax [3, 9]: 149 µM
- IC50 [2, 7]: > 100 µM
- IC50 ([4]; Hepatocyte): > 100 µM
- FDA DILI Classification DILI severity score [5]: 8
- LTKB DILI classification [5]: most DILI concern
- DILI severity category [6, 10]: 1: Severe clinical DILI (N = 23)
- DILI severity category [6, 11]: 1. Severe Clinical DILI
- DILI category ([6]; ref Garside et al. 2014): 1. Severe Clinical DILI

Compound: CCc1oc2ccccc2c1C(=O)c1cc(Br)c(O)c(Br)c1 [Benzbromarone]
- Cmax [3, 8]: 23.6 µM
- Cmax [3, 9]: 23.6 µM
- IC50 [2, 7]: 11.8 µM
- IC50 ([4]; Hepatocyte): 171 µM
- FDA DILI Classification DILI severity score [5]: 8
- LTKB DILI classification [5]: most DILI concern
- DILI severity category [6, 10]: 1: Severe clinical DILI (N = 23)
- DILI severity category [6, 11]: 1. Severe Clinical DILI
- DILI category ([6]; ref Garside et al. 2014): 1. Severe Clinical DILI

Compound: NC(=O)N1c2ccccc2C=Cc2ccccc21 [Carbamazepine]
- Cmax [3, 8]: 50.8 µM
- Cmax [3, 9]: 50.8 µM
- IC50 [2, 7]: 267 µM
- IC50 ([4]; Hepatocyte): > 500 µM
- FDA DILI Classification DILI severity score [5]: 7
- LTKB DILI classification [5]: most DILI concern
- DILI severity category [6, 10]: 2: High clinical DILI concern (N = 23)
- DILI severity category [6, 11]: 2. High Clinical DILI Concern
- DILI category ([6]; ref Garside et al. 2014): 2. High Clinical DILI Concern

Compound: O=C1CN(/N=C/c2ccc(-c3ccc([N+](=O)[O-])cc3)o2)C(O)=N1 [Dantrolene]
- Cmax [3, 8]: 3.95 µM
- Cmax [3, 9]: 3.95 µM
- IC50 [2, 7]: > 100 µM
- IC50 ([4]; Hepatocyte): > 100 µM
- FDA DILI Classification DILI severity score [5]: 8
- LTKB DILI classification [5]: most DILI concern
- DILI severity category [6, 10]: 1: Severe clinical DILI (N = 23)
- DILI severity category [6, 11]: 1. Severe Clinical DILI
- DILI category ([6]; ref Garside et al. 2014): 1. Severe Clinical DILI

Compound: O=C1[C@H](CC[C@H](O)c2ccc(F)cc2)[C@@H](c2ccc(O)cc2)N1c1ccc(F)cc1 [Ezetimibe]
- IC50 [1]: 45.6 µM
- IC50 ([2]; Homo sapiens, 336 h, read-out: IC50 LONG): 45.5 µM
- DILI severity category ([6]; table S-4, ref Garside et al. 2014): 3

Compound: NC(=O)OCC(COC(N)=O)c1ccccc1 [Felbamate]
- Cmax [3, 8]: 399 µM
- Cmax [3, 9]: 399 µM
- IC50 [2, 7]: > 100 µM
- IC50 ([4]; Hepatocyte): > 100 µM
- FDA DILI Classification DILI severity score [5]: 7
- LTKB DILI classification [5]: most DILI concern
- DILI severity category [6, 10]: 1: Severe clinical DILI (N = 23)
- DILI severity category [6, 11]: 1. Severe Clinical DILI
- DILI category ([6]; ref Garside et al. 2014): 1. Severe Clinical DILI

Compound: COc1ccc2c(c1)c(CC(=O)O)c(C)n2C(=O)c1ccc(Cl)cc1 [Indomethacin]
- Cmax [3, 8]: 8.4 µM
- Cmax [3, 9]: 8.38 µM
- IC50 [1]: 100 µM
- IC50 [2, 7]: > 100 µM
- IC50 ([4]; Hepatocyte): > 100 µM

Compound: CCC(C)n1ncn(-c2ccc(N3CCN(c4ccc(OCC5COC(Cn6cncn6)(c6ccc(Cl)cc6Cl)O5)cc4)CC3)cc2)c1=O (stereo not shown) [Itraconazole]
- Cmax [3, 8]: 2.8 µM
- Cmax [3, 9]: 2.83 µM
- IC50 [2, 7]: 1.6 µM
- IC50 ([4]; Hepatocyte): > 25 µM
- FDA DILI Classification DILI severity score [5]: 8
- LTKB DILI classification [5]: most DILI concern
- DILI severity category [6, 10]: 2: High clinical DILI concern (N = 23)
- DILI severity category [6, 11]: 2. High Clinical DILI Concern
- DILI category ([6]; ref Garside et al. 2014): 2. High Clinical DILI Concern

Compound: CS(=O)(=O)CCNCc1ccc(-c2ccc3ncnc(Nc4ccc(OCc5cccc(F)c5)c(Cl)c4)c3c2)o1 [Lapatinib]
- Cmax [3, 8]: 19 µM
- Cmax [3, 9]: 19 µM
- IC50 [2, 7]: ~27.3 µM
- IC50 ([4]; Hepatocyte): 33.3 µM
- FDA DILI Classification DILI severity score [5]: 8
- LTKB DILI classification [5]: most DILI concern
- DILI severity category [6, 10]: 1: Severe clinical DILI (N = 23)
- DILI severity category [6, 11]: 1. Severe Clinical DILI
- DILI category ([6]; ref Garside et al. 2014): 1. Severe Clinical DILI

Compound: Cc1cnc(NC(=O)C2=C(O)c3ccccc3S(=O)(=O)N2C)s1 [Meloxicam]
- Cmax [3, 8]: 5.21 µM
- Cmax [3, 9]: 5.21 µM
- IC50 [1]: 100 µM
- IC50 [2, 7]: > 100 µM
- IC50 ([4]; Hepatocyte): > 100 µM

Compound: COc1ccc2cc([C@H](C)C(=O)O)ccc2c1 [Naproxen]
- IC50 [1]: 100 µM

Compound: O=c1[nH]c2ccccc2n1C1CCN(CCCC(c2ccc(F)cc2)c2ccc(F)cc2)CC1 [Pimozide]
- Cmax [3, 8]: 0.11 µM
- Cmax [3, 9]: 0.11 µM
- IC50 [2, 7]: > 6 µM
- IC50 ([4]; Hepatocyte): 17.6 µM
- FDA DILI Classification DILI severity score [5]: 0
- LTKB DILI classification [5]: no DILI concern
- DILI severity category [6, 10]: 3: Low clinical DILI concern (N = 23)
- DILI severity category [6, 11]: 3. Low Clinical DILI Concern
- DILI category ([6]; ref Garside et al. 2014): 3. Low Clinical DILI Concern

Compound: CCc1ccc(CCOc2ccc(CC3SC(=O)NC3=O)cc2)nc1 (stereo not shown) [Pioglizatone, Pioglitazone]
- Cmax [3, 8]: 2.95 µM
- Cmax [3, 9]: 2.95 µM
- IC50 [2, 7]: > 15.6 µM
- IC50 ([4]; Hepatocyte): > 125 µM
- FDA DILI Classification DILI severity score [5]: 3
- LTKB DILI classification [5]: less DILI concern
- DILI severity category [6, 10]: 3: Low clinical DILI concern (N = 23)
- DILI severity category [6, 11]: 3. Low Clinical DILI Concern
- DILI category ([6]; ref Garside et al. 2014): 3. Low Clinical DILI Concern

Compound: Cc1cc2c(cc1CC(=O)c1sccc1S(=O)(=O)Nc1onc(C)c1Cl)OCO2 [Sitax(s)entan]
- Cmax [3, 8]: 28.6 µM
- Cmax [3, 9]: 28.6 µM
- IC50 ([2]; read-out: Geomean IC50, decrease in total cellular ATP content, hLiMT treated for 14 days, hepatocyte lot IZT (except Dexamethasone) co-cultured with NPCs, n=1 or geometric mean): 249 µM
- IC50 [4]: > 500 µM
- cytotoxicity IC50 detected ([4]; PHH 48 h, in words): no IC50 values were detected
- FDA DILI Classification DILI severity score [5]: 8
- LTKB DILI classification [5]: most DILI concern
- DILI severity category [6, 10]: 1: Severe clinical DILI (N = 23)
- DILI severity category [6, 11]: 1. Severe Clinical DILI
- DILI category ([6]; ref Garside et al. 2014): 1. Severe Clinical DILI

Compound: Cc1cn([C@H]2C=C[C@@H](CO)O2)c(=O)[nH]c1=O [Stavudine]
- Cmax [3, 8]: 3.46 µM
- Cmax [3, 9]: 3.46 µM
- IC50 [2, 7]: > 500 µM
- IC50 ([4]; Hepatocyte): > 500 µM
- FDA DILI Classification DILI severity score [5]: 8
- LTKB DILI classification [5]: most DILI concern
- DILI severity category [6, 10]: 1: Severe clinical DILI (N = 23)
- DILI severity category [6, 11]: 1. Severe Clinical DILI
- DILI category ([6]; ref Garside et al. 2014): 1. Severe Clinical DILI

Compound: CCN(CC)CCNC(=O)c1c(C)[nH]c(/C=C2\C(=O)Nc3ccc(F)cc32)c1C [Sunitinib]
- Cmax [3, 9]: 70.8 µM
- IC50 [2, 7]: ~2 µM
- IC50 ([4]; Hepatocyte): 13.3 µM
- FDA DILI Classification DILI severity score [5]: 8
- LTKB DILI classification [5]: most DILI concern
- DILI severity category [6, 10]: 1: Severe clinical DILI (N = 23)
- DILI severity category [6, 11]: 1. Severe Clinical DILI
- DILI category ([6]; ref Garside et al. 2014): 1. Severe Clinical DILI

Compound: CC(c1cc2ccccc2s1)N(O)C(N)=O (stereo not shown) [Zileuton]
- Cmax [3, 8]: 13.1 µM
- Cmax [3, 9]: 13.1 µM
- IC50 [2, 7]: > 100 µM
- IC50 ([4]; Hepatocyte): > 100 µM
- FDA DILI Classification DILI severity score [5]: 5
- LTKB DILI classification [5]: most DILI concern
- DILI severity category [6, 10]: 2: High clinical DILI concern (N = 23)
- DILI severity category [6, 11]: 2. High Clinical DILI Concern
- DILI category ([6]; ref Garside et al. 2014): 2. High Clinical DILI Concern
